Consider 47 molecules from patent publication US9079905B2, “Compounds for the treatment of CNS disorders” (Boehringer Ingelheim International GmbH, priority 2008, dated 2015).

For the test, the target named is T1, human PDE9A2 (Homo sapiens, UniProt O76083).
T1 construct: made in house; host or cells: Sf9 insect cells (infected; crude lysate used as enzyme source)
Put plainly: PDE9A2 enzymatic activity assay (scintillation proximity assay). Type of test: biochemical. The note with it: for IC50: specific IC50 value is within the given range. The protocol: The PDE9A2 enzymatic activity assay was run as scintillation proximity assay (SPA), in general according to the protocol of the manufacturer (Amersham Biosciences, product number: TRKQ 7100).
As enzyme source, lysate (PBS with 1% Triton X-100 supplemented with protease inhibitors, cell debris removed by centrifugation at 13.000 rpm for 30 min) of SF 9 cell expressing the human PDE9A2 was used. The total protein amount included in the assay varied upon infection and production efficacy of the SF9 cells and lay in the range of 0.1-100 ng.
In general, the assay conditions were as follows: • total assay volume: 40 microliter • protein amount: 0.1-50 ng • substrate concentration (cGMP): 20 nanomolar; ˜1 mCi/1 • incubation time: 60 min at room temperature • final DMSO concentration: 0.2-1
The assays were run in 384-well format. The test reagents as well as the enzyme and the substrate were diluted in assay buffer. The assay buffer contained 50 mM Tris, 8.3 mM MgCl2, 1.7 mM EGTA, 0.1% BSA, 0.05% Tween 20; the pH of assay buffer was adjusted to 7.5. The reaction was stopped by applying a PDE9 specific inhibitor (e.g. compounds according to WO04099210 or WO04099211) in excess.
The activity of the positive control (minus the negative control=background) is set to 100% and activity in the presence of test compound is expressed relative to these 100%. Within this setting, an inhibition above 100% might be possible due to the nature of the variation of the positive control within the assay. In the following inhibition of PDE 9A2 is presented for a concentration at 10 μM, if not indicated otherwise.
IC50 can be calculated with GraphPadPrism or other suited software setting the positive control as 100 and the negative control as 0. For calculation of IC50 dilutions of the test compounds (substrates) are to be selected and tested following the aforementioned protocol.
Background: SPA uses beads or plates that emit light when radiolabelled molecules are held near them.

[1] abbreviates: read-out: % Inhibition of PDE 9A2.

T1 sequence (O76083 1-533 isoform O76083-2): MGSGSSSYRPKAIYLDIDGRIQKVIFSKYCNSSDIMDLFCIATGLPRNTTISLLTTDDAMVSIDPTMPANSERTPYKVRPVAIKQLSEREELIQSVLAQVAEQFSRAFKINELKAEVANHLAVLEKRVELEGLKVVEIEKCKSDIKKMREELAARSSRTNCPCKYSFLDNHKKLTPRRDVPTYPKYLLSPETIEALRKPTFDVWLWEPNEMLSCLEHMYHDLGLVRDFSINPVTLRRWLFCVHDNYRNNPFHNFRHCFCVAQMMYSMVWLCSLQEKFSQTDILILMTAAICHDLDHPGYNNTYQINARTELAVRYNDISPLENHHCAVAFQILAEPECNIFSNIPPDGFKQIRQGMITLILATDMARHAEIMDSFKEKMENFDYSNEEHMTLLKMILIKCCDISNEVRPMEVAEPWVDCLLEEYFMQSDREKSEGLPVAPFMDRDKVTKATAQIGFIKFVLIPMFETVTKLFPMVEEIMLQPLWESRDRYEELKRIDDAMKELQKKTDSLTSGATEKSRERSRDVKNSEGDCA

For the molecule `COc1cc(-c2cc(F)ccc2Cc2nc3c(cnn3C3CCC(F)(F)CC3)c(=O)[nH]2)ccn1` [Example 59], the IC50 (commonly the point on the concentration scale where inhibition reaches its midpoint) is 0.101 to 1.5 µM. For the same molecule, the inhibition (as a rule, the drop in the measured response relative to a control, in per cent) at 10 µM under setting [1] stood at 95%.
`NC(=O)c1ccc(-c2ccc(F)cc2Cc2nc3c(cnn3C3CCC(F)(F)CC3)c(=O)[nH]2)cn1` [Example 61]: the IC50 fell in the range of 0.001 to 0.1 µM. Besides, the inhibition at 10 µM under setting [1] came out at 99%.
For `NC(=O)c1ccc(-c2cc(F)ccc2Cc2nc3c(cnn3C3CCC(F)(F)CC3)c(=O)[nH]2)cn1` [Example 62] the same measures were 0.001 to 0.1 µM and 100%.
`N#Cc1ccc(-c2cc(F)ccc2Cc2nc3c(cnn3C3CCC(F)(F)CC3)c(=O)[nH]2)cn1` [Example 63]: the 50% inhibitory concentration (IC50) lay in the range of 0.101 to 1.5 µM. For the same molecule, the inhibition at 10 µM under setting [1] came out at 93%.
The matching figures for `COc1cc(-c2ccc(F)cc2Cc2nc3c(cnn3C3CCC(F)(F)CC3)c(=O)[nH]2)ccn1` [Example 64]: 0.001 to 0.1 µM and 97%.
As for `COc1ccc(-c2ccc(F)cc2Cc2nc3c(cnn3C3CCC(F)(F)CC3)c(=O)[nH]2)cn1` [Example 65], the IC50 lay in the range of 0.001 to 0.1 µM. The inhibition at 10 µM under setting [1] amounted to 101%.
For `O=c1[nH]c(Cc2cc(F)ccc2-c2cccnc2)nc2c1cnn2C1CCC(F)(F)CC1` [Example 66] the same measures were 0.001 to 0.1 µM and 100%.
The matching figures for `COc1cncc(-c2cc(F)ccc2Cc2nc3c(cnn3C3CCC(F)(F)CC3)c(=O)[nH]2)c1` [Example 67]: 0.001 to 0.1 µM and 99%.
Molecule `COc1ccc(-c2cc(F)ccc2Cc2nc3c(cnn3C3CCC(F)(F)CC3)c(=O)[nH]2)cc1` [Example 68] showed a concentration for half-maximal inhibition (IC50) of 0.101 to 1.5 µM. Also, the inhibition at 10 µM under setting [1] is 96%.
In turn, `COc1ccc(-c2cc(F)ccc2Cc2nc3c(cnn3C3CCC(F)(F)CC3)c(=O)[nH]2)cn1` [Example 69] yielded a 50% inhibitory concentration (IC50) of 0.101 to 1.5 µM. Moreover, the inhibition at 10 µM under setting [1] worked out at 97%.
The matching figures for `O=c1[nH]c(Cc2cc(F)ccc2-c2ccncc2)nc2c1cnn2C1CCC(F)(F)CC1` [Example 70]: 0.001 to 0.1 µM and 100%.
The matching figures for `O=c1[nH]c(Cc2ccc(F)cc2-c2cccnc2)nc2c1cnn2C1CCC(F)(F)CC1` [Example 71]: 0.001 to 0.1 µM and 98%.
For `Cn1nccc1-c1ccc(F)cc1Cc1nc2c(cnn2C2CCC(F)(F)CC2)c(=O)[nH]1` [Example 72-2] the same measures were 0.001 to 0.1 µM and 98%.
For `Cn1cc(-c2ccc(F)cc2Cc2nc3c(cnn3C3CCC(F)(F)CC3)c(=O)[nH]2)cn1` [Example 72-3], the IC50 is 0.001 to 0.1 µM. Besides, the inhibition at 10 µM under setting [1] turned out to be 98%.
In turn, `O=c1[nH]c(Cc2cc(F)ccc2-c2ccnc(F)c2)nc2c1cnn2C1CCC(F)(F)CC1` [Example 72-4] displayed a half-maximal inhibitory concentration (IC50) of 0.001 to 0.1 µM. Moreover, under setting [1], the inhibition at 10 µM worked out at 101%.
For `COc1ccc(-c2ccc(F)cc2Cc2nc3c(cnn3C3CCC(F)(F)CC3)c(=O)[nH]2)cc1` [Example 72-5], the IC50 fell in the range of 0.001 to 0.1 µM. Moreover, the inhibition at 10 µM under setting [1] amounted to 99%.
`N#Cc1ccc(-c2ccc(F)cc2Cc2nc3c(cnn3C3CCC(F)(F)CC3)c(=O)[nH]2)cc1` [Example 72-6] registered a 50% inhibitory concentration (IC50) of 0.001 to 0.1 µM. For the setting “at 1 μM, read-out: % Inhibition of PDE 9A2”, the inhibition at 1 µM stood at 96%.
In turn, `O=c1[nH]c(Cc2cc(F)ccc2-c2ccc(F)nc2)nc2c1cnn2C1CCC(F)(F)CC1` [Example 72-7] returned a half-maximal inhibitory concentration (IC50) of 0.001 to 0.1 µM. Under setting [1], the inhibition at 10 µM is 100%.
The matching figures for `COc1ncccc1-c1ccc(F)cc1Cc1nc2c(cnn2C2CCC(F)(F)CC2)c(=O)[nH]1` [Example 72-8]: 0.001 to 0.1 µM and 98%.
In turn, `O=c1[nH]c(Cc2cc(F)ccc2-c2cncc(F)c2)nc2c1cnn2C1CCC(F)(F)CC1` [Example 72-9] had a half-inhibitory concentration (IC50) of 0.001 to 0.1 µM. For the same molecule, under setting [1], the inhibition at 10 µM worked out at 100%.
The matching figures for `O=c1[nH]c(Cc2ccc(F)cc2-c2ccncc2)nc2c1cnn2C1CCC(F)(F)CC1` [Example 72]: 0.101 to 1.5 µM and 97%.
For `Cc1ccc(-c2ccccc2Cc2nc3c(cnn3C3CCC(F)(F)CC3)c(=O)[nH]2)cn1` [Example 73] the same measures were 0.001 to 0.1 µM and 98%.
As to `O=c1[nH]c(Cc2ccccc2-c2ccnc(F)c2)nc2c1cnn2C1CCC(F)(F)CC1` [Example 74], the concentration for half-maximal inhibition (IC50) fell in the range of 0.001 to 0.1 µM. The inhibition at 10 µM under setting [1] came to 98%.
For `O=c1[nH]c(Cc2ccccc2-c2ccc(N3CCOCC3)nc2)nc2c1cnn2C1CCC(F)(F)CC1` [Example 75] the same measures were 0.001 to 0.1 µM and 101%.
The matching figures for `O=c1[nH]c(Cc2ccccc2-c2cncnc2)nc2c1cnn2C1CCC(F)(F)CC1` [Example 76]: 0.001 to 0.1 µM and 99%.
For `O=c1[nH]c(Cc2ccccc2CCCN2CCOCC2)nc2c1cnn2C1CCC(F)(F)CC1` [Example 78] the same measures were 0.001 to 0.1 µM and 97%.
`CN(C)C(=O)Cc1ccccc1Cc1nc2c(cnn2C2CCC(F)(F)CC2)c(=O)[nH]1` [Example 79] had a half-maximal inhibitory concentration (IC50) of 0.101 to 1.5 µM. In addition, the inhibition at 10 µM under setting [1] came to 95%.
The matching figures for `CN1CCN(C(=O)Cc2ccccc2Cc2nc3c(cnn3C3CCC(F)(F)CC3)c(=O)[nH]2)CC1` [Example 80]: 0.101 to 1.5 µM and 91%.
For `O=C(Cc1ccccc1Cc1nc2c(cnn2C2CCC(F)(F)CC2)c(=O)[nH]1)N1CCCCC1` [Example 81] the same measures were 0.101 to 1.5 µM and 95%.
The matching figures for `O=C(Cc1ccccc1Cc1nc2c(cnn2C2CCC(F)(F)CC2)c(=O)[nH]1)N1CCOCC1` [Example 82]: 0.101 to 1.5 µM and 91%.
Take `O=c1[nH]c(Cc2ccccc2CCO)nc2c1cnn2C1CCC(F)(F)CC1` [Example 83]: the half-inhibitory concentration (IC50) fell in the range of 0.101 to 1.5 µM. Further, under setting [1], the inhibition at 10 µM amounted to 88%.
For `COC(=O)Cc1ccccc1Cc1nc2c(cnn2C2CCC(F)(F)CC2)c(=O)[nH]1` [Example 84] the same measures were 0.101 to 1.5 µM and 81%.
`O=c1[nH]c(Cc2cc(F)ccc2-n2cccn2)nc2c1cnn2C1CCC(F)(F)CC1` [Example 89] returned an IC50 of 0.001 to 0.1 µM. Further, the inhibition at 10 µM under setting [1] was 98%.
For `O=c1[nH]c(Cc2cc(F)ccc2-c2ccccn2)nc2c1cnn2C1CCC(F)(F)CC1` [Example 90] the same measures were 0.001 to 0.1 µM and 97%.
For `O=c1[nH]c(Cc2ccccc2-c2ccccn2)nc2c1cnn2C1CCC(F)(F)CC1` [Example 91] the same measures were 0.001 to 0.1 µM and 95%.
The matching figures for `Cc1ccc(-c2ccccc2Cc2nc3c(cnn3C3CCC(F)(F)CC3)c(=O)[nH]2)o1` [Example 93]: 0.001 to 0.1 µM and 94%.
`Cn1cc(-c2cccnc2Cc2nc3c(cnn3C3CCC(F)(F)CC3)c(=O)[nH]2)cn1` [Example 94] registered a half-inhibitory concentration (IC50) of 0.001 to 0.1 µM. The inhibition at 10 µM under setting [1] amounted to 98%.
Take `Cc1ncn(-c2ccccc2Cc2nc3c(cnn3C3CCC(F)(F)CC3)c(=O)[nH]2)n1` [Example 95-1]: the IC50 was 0.001 to 0.1 µM. Further, the inhibition at 10 µM under setting [1] was 111%.
In turn, `O=c1[nH]c(Cc2ccccc2-n2cccn2)nc2c1cnn2C1CCC(F)(F)CC1` [Example 95] registered an IC50 of 0.001 to 0.1 µM. Moreover, the inhibition at 10 µM under setting [1] was 97%.
The matching figures for `O=c1[nH]c(Cc2ncccc2-n2cccn2)nc2c1cnn2C1CCC(F)(F)CC1` [Example 96]: 0.001 to 0.1 µM and 93%.
For `Cc1nc(-c2ccccc2Cc2nc3c(cnn3C3CCC(F)(F)CC3)c(=O)[nH]2)no1` [Example 97] the same measures were 0.001 to 0.1 µM and 100%.
As for `O=c1[nH]c(Cc2ccccc2-c2ccnnc2)nc2c1cnn2C1CCC(F)(F)CC1` [Example 98], the half-maximal inhibitory concentration (IC50) is 0.001 to 0.1 µM. For the same molecule, the inhibition at 10 µM under setting [1] worked out at 100%.
The matching figures for `Cc1nc(-c2ccccc2Cc2nc3c(cnn3C3CCC(F)(F)CC3)c(=O)[nH]2)n[nH]1` [Example 99]: 0.001 to 0.1 µM and 100%.
The matching figures for `COc1cccnc1Cc1nc2c(cnn2C2CCC(F)(F)CC2)c(=O)[nH]1` [Example 100]: 0.101 to 1.5 µM and 95%.
Regarding `O=c1[nH]c(Cc2ccccc2C2CC2)nc2c1cnn2C1CCC(F)(F)CC1` [Example 103], the IC50 lay in the range of 0.001 to 0.1 µM. The inhibition at 3.3 µM (at 3.3 μM, read-out: % Inhibition of PDE 9A2) stood at 96%.
The molecule `O=c1[nH]c(Cc2ccccc2-n2cccc2)nc2c1cnn2C1CCC(F)(F)CC1` [Example 104] displayed a half-inhibitory concentration (IC50) of 0.001 to 0.1 µM. In addition, the inhibition at 10 µM under setting [1] worked out at 97%.
As for `O=c1[nH]c(Cc2ncccc2C2CC2)nc2c1cnn2C1CCC(F)(F)CC1` [Example 105], the 50% inhibitory concentration (IC50) was 0.101 to 1.5 µM. Under setting [1], the inhibition at 10 µM was found to be 97%.
